Tested on: adult mouse heart after myocardial infarction
Assay: Neonatal propranolol treatment followed by adult baseline analysis and myocardial infarction (LAD ligation) with cardiac MRI, AFOG histology and stereology
Format: in vivo
Protocol: Mouse myocardial injury model: ICR mice were treated with propranolol (10 μg/g, 2 i.p. injections/day) from P1 to P12. Then, cardiac injury was induced to male mice via performing left anterior descending artery (LAD) ligation at the age of P40 to P60. Briefly, the mice were anesthetized with 4% isoflurane, intubated, and ventilated with a stroke volume of 225 microliters (μl) at 145 breaths/minute. The hearts were exposed by performing thoracotomy and the LAD coronary artery was tied with 8-0 nylon suture. After the chest was […] with 6-0 suture, bupivacaine (8 μg/g) was locally administered through subcutaneous injection. The mice were kept intubated without isoflurane at room temperature until waking up from the anesthesia. Bupivacaine (8 μg/g) was administered by subcutaneous injection in the following 3 days (1 day post injury (dpi) to 3 dpi). The heart function after LAD ligation was measured by cardiac MRI at 1-3 days post injury (dpi, acute injury period) and 10-12 dpi (recovery period), respectively.
Quantification of cardiomyocytes with unbiased stereology: Mouse hearts were washed in cardioplegia solution (PBS, […] potassium chloride (KCl)), weighed, and fixed with 3.7% formaldehyde at room temperature overnight. The hearts were then placed in 30% sucrose at 4° C. for 48 hours. The atria were cut off and the ventricles were embedded in OCT and sectioned on a Leica CM1950 cryostat in cross-sectional orientation (thickness 15 μm), resulting in 75-80 slides/heart with 4 sections each. For random systematic sampling we used a random number generator ranging between […] to determine the first slide and then selected every 17th slide for staining. Myocardial volume and scar were quantified by point count method on AFOG-stained sections. Briefly, tissue sections were stained with Acid fuchsin-orange G (AFOG; Polizzotti et al.) and photomicrographs were taken on a Leica MZ26 dissector microscope (objective lens 10×). Areas of myocardium (red after AFOG staining) and scar (blue after AFOG staining) were quantified using ImageJ (version 1.51s). The image was overlaid with a grid to determine area per point. The distance between selected sections was calculated (17th slide×4 sections/slide×15 μm section thickness). The LV myocardial volume was measured by counting the number of grids on both LV myocardium and the scar region. We used the optical dissector method to determine the volume density of cardiomyocyte nuclei. The optical dissector operates optimally at 3 μm distance between lookup and counting frames. Adult mouse hearts were sectioned with a cryostat set at 15 μm. Slides were stained with α-actinin and Hoechst and imaged with an A1R laser-scanning confocal microscope (×60 oil lens).
Briefly, the immunofluorescence stained sections were imaged using a Nikon A1R confocal microscope. We selected four random spots on the technically-best section from each slide and analyzed 20 random samples from each heart. The total number of positive cardiomyocyte nuclei per heart was counted and the mean per sample volume was calculated. Total number of cardiomyocytes (endowment) was calculated as: Number of cardiomyocytes=Number of cardiomyocyte nuclei/(Mono %+2×Bi %[…]+4×Tetra %).
Adult mouse cardiac MRI: Mice were anesthetized with 4% isoflurane mixed with room air in an induction box for 1 to 3 minutes. The depth of anesthesia was monitored by toe reflex, extension of limbs, and spine positioning. Once an appropriate depth of anesthesia was established, mice were placed on a custom-built mouse holder and the anesthesia was maintained by 1.5 to 2% isoflurane with 100% oxygen via a nose cone. […] The respiration waveform was automatically processed to detect inspiration, expiration, and respiration rate. In-vivo cardiac MRI (CMR) was carried out on a Bruker Biospec 7T/30 system (Bruker Biospin MRI, Billerica, Mass.) with the 35-mm quadrature coil for both transmission and reception.

CC(C)NCC(O)COc1cccc2ccccc12 (centres unmarked) [propranolol, 1-naphthalen-1-yloxy-3-(propan-2-ylamino)propan-2-ol]
scar size, determined by histology (12 dpi, AFOG staining, vs control, FIG. 13K): not different | region of myocardium affected by ischemia, visualized by LGE (after MI, vs control, FIG. 13D, 13E): not different | relative systolic thickening (after MI, vs control, FIG. 13J): higher | higher cardiomyocyte endowment after MI (determined by stereology, vs control, FIG. 13L): 30% | increased cardiomyocyte endowment in adult hearts at baseline (propranolol 10 μg/g, 2 i.p. injections per day, P1-12, P42, FIG. 13A): persisted until adulthood | cardiac function (ejection fraction) of adult hearts at baseline (propranolol P1-12, P60, FIG. 13B): did not alter | thinned region of the LV myocardium after myocardial infarction (recovery phase, vs control, FIG. 13H, 13I): significantly smaller | MRI-measured ejection fraction (twelve days after MI (recovery phase), FIG. 13F, 13G): 42% | infarct size by late gadolinium-enhancement vs control (two days after MI (acute phase), FIG. 13D, 13E): same | ejection fraction (MRI) vs control (two days after MI (acute phase), FIG. 13F, 13G): same | heart weight (heart weight to body weight ratio) after MI (vs control, FIG. 13M): not changed
